US6689813B2 (Biostatin Gyogyszerkutato-Fejleszto kft., priority 1998, dated 2004)
Where no end group is shown, it is not given here. [ ]: non-standard residue; d: D form.

Assays:
Wistar rats [1] = assay: 1% mustard oil-induced neurogenic inflammation (Evans blue plasma extravasation, foot skin); assay type: in vivo, rat
Experimental: Thirty minutes after acute bilateral denervation of the lower limbs (transsection of the saphenous and sciatic nerves), 50 mg/kg of Evans blue dye was administered to the tail vein of nembutal-anaesthetized (pentobarbital, 40 mg/kg i.p.) Wistar rats (150-220 g body weight; 5 to 7 animals in each group). […] The mustard oil induces a so-called neurogenic inflammation by the selective stimulation of the peripheral endings of CSPAN's and by releasing the mediators being present therein (chiefly tachykinins and CGRP); this neurogenic inflammation appears as a vasodilatation in the area of arterioles and in the form of a plasma extravasation at the venular side. Since the dye Evans blue is bound to serum albumin in the vascular bed, its precipitation and accumulation in the upper skin surface of foot are proportional to the extent of plasma extravasation. Thus, the quantitative determination of intensity of the inflammation becomes possible. After the painting with mustard oil, the animals were bled, the foot dorsum skins were cut out and their weights were determined. The amount of dye extracted during 72 hours of incubation in formamide was determined at 620 nm on a spectrophotometer (Spectromon 195). The amount (expressed as μg) of the extravasated Evans blue related to one g of wet tissue was calculated by means of the following formula:
Evans blue (μg/g)=E×V×k/m
E is the light absorption of the solution, V means the volume (ml) of the solution, m is the weight […] of the skin cut out from the foot dorsum skin; and k is a constant determined on the basis of a dilution series, which is characteristic of the dye solution.

rats = assay: Bradykinin-induced non-neurogenic inflammation (Evans blue extravasation) after chronic denervation; assay type: in vivo, rat
Experimental: After chronic denervation (see 1.2.1.), each group of 5 rats received various doses (1, 2.5, 5, 10 or 20 μg, respectively, i.v.) of TT-232 and simultaneously Evans blue (50 mg/kg i.v.). Ten minutes later, bradykinin was injected underneath the plantar skin of the lower limbs of the rats. After 15 minutes the animals were bled and the amount of the extravasated Evans blue (expressed as […] related to the wet tissue) was determined as.described above (1.1.).

Wistar rats [2] = assay: Analgetic action: vegetative (pseudoaffective) reflex responses to mustard oil and capsaicin under urethane anaesthesia; assay type: in vivo, rat; parameters: Increase in heart rate: unit not given here; settings: 10 μg/kg i.p.
Text: This test is based on the synchronous registration of several components of so-called pseudoaffective reflex responses, which can be induced on animals by pain-producing stimuli [Lim, R. K. S.: J. Comp. Neurol 118, 269-294 (1962)] under urethane anaesthesia.
A significant blood pressure increase of 45 mmHg as an average pressor response, heart rate increase of 85 (as an average) and hyperpnoea (the number of respirations increases by 61 per minute as an average) can be observed in control animals on the effect of strong chemonociceptive stimuli (painting of the lower limbs with 1% mustard oil or dropping a capsaicin solution of 100 μg/ml concentration into the eye) under urethane anaesthesia.
The blood pressure, heart rate and respiration of intact Wistar rats (5 to 7 animals in each group, with a body weight of 250 to 350 g) were continuously registered for 40 minutes through an arterial cannula as well as double ramifying trachea cannula. Ten minutes before beginning the measurement, the pretreated animals received intraperitoneally 10 μg/kg of somatostatin (SS), octreotide or TT-232, respectively. Both lower limbs of the animals were painted with mustard oil in the 3rd minute and capsaicin solution was dropped into their eyes in the 23rd minute. The vegetative responses given on these nociceptive stimuli were evaluated by using a specific computer program.

unanaesthetized animals = assay: Mechanical nociceptive threshold, Randall-Selitto test after carrageenin; assay type: in vivo; settings: 30 minutes after carrageenin
Experimental: The mechanical nociceptive threshold was investigated by using the Randall-Selitto test (Ugo Basil equipment) on unanaesthetized animals. Before the beginning of the experiment, the animals were tested several times to provide their adaptation to the experimental conditions. The animals received TT-232 in various concentrations (1.25, 2.5, 5, 10 μg i.v.) and after 15 minutes, carrageenin (0.1 ml of 1% solution) was injected into the plantar skin of the lower limbs of the animals.

[3] = test system: release of sensory neuropeptides from the trachea of rats; assay: In vitro release of sensory neuropeptides (SP, CGRP, SOM) from the trachea of rats, RIA; parameters: species or system rat
Experimental: After bleeding out, the tracheas of two rats each were removed, placed into an organ bath (1.8 ml) and Krebs solution saturated with oxygen (95% of oxygen and 5% of carbon dioxide) was bubbled through it at 37° C. for 60 minutes (with a rate of 1 ml/min). After stopping the flow, the bath solution was changed 3 times (pre-stimulated—stimulated—post-stimulated) for 8 minutes. The release of sensory neuropeptides from the tissue samples was induced by electric (40 V, 0.1 ms, 10 Hz, 120 s) and chemical (10^−7 M of capsaicin) stimulation, in the presence or absence of TT-232 (200 nM, 500 nM). The fractions were collected in ice-cold tubes; the wet weights of tracheas were measured. The concentrations of substance P (SP), calcitonin gene-related peptide (CGRP) and somatostatin (SOM) were determined by using a specific radioimmunoassay (RIA) developed in our laboratory and expressed as the amount of peptide released from one g of tissue. The limits of measurements were: 2 fmol/tube for SP; 1 fmol/tube for CGRP; and 2 fmol/tube for SOM [Németh, J.: Acta Physiol. Hung. 84, 313-315 (1996); Helyes, Zs.: Br. J. Pharmacol. 121, 613-615 (1997)].

[4] = capsaicin stimulation, 200 nM TT-232
[5] = capsaicin stimulation, 500 nM TT-232
[6] = electrical stimulation, 500 nm TT-232

## D-Phe-Cys-Tyr-D-Trp-Lys-Cys-Thr-NH2 ([dF]CY[dW]KCT-NH2; cysteine pairing not given here) [TT-232]
Wistar rats [1]; 20 μg/kg i.p., 1% mustard oil
  Decrease % (Evans blue extravasation vs control): 63.616%
Wistar rats [1]; 20 μg/kg i.p., 1% mustard oil on feet, control 169.525
  Evans blue extravasation: 61.68 µg/g
Wistar rats [1]; 20 μg/kg, 20 minutes after i.p. administration
  inhibition of mustard oil-induced neurogenic inflammation (in words): significantly inhibited
Wistar rats [1]; dose/effect relation, FIG. 2
  equipotent dose ratio vs somatostatin (times lower dose): ~8 times
  highest antiinflammatory effect relative to highest effect of somatostatin: double
Wistar rats [1]; intravenous dose of 2.5 μg/kg, 2 hours after administration (FIG. 2.a)
  inhibition of inflammation: 35%
rats; TT-232 1 μg/kg i.v., control (buffer) 127.35 ± 7.11
  Evans blue extravasation: 98.21 ± 7.44 µg/kg
rats; TT-232 2.5 μg/kg i.v.
  Evans blue extravasation: 85.02 ± 7.33 µg/kg
rats; TT-232 5 μg/kg i.v.
  Evans blue extravasation: 81.95 ± 7.64 µg/kg
rats; TT-232 10 μg/kg i.v.
  Evans blue extravasation: 86.31 ± 8.74 µg/kg
rats; TT-232 20 μg/kg i.v.
  Evans blue extravasation: 77.4 ± 4.59 µg/kg
Wistar rats [2]; 10 minutes before mustard oil
  protection against pseudoaffective reflex triad elicited by mustard oil and capsaicin (in words): practically complete protection
Wistar rats [2]; after dropping capsaicin solution into the eye, control 47.5
  Increase in respiration rate: 17.85 per minute
Wistar rats [2]; after dropping capsaicin solution into the eye, control 55
  Increase in mean arterial pressure: 13 mmHg
Wistar rats [2]; after dropping capsaicin solution into the eye, control 143
  Increase in heart rate: 22.88
Wistar rats [2]; after painting the feet by mustard oil, control 45.4
  Increase in mean arterial pressure: 4.86 mmHg
Wistar rats [2]; after painting the feet by mustard oil, control 60.75
  Increase in respiration rate: 12 per minute
Wistar rats [2]; after painting the feet by mustard oil, control 84.8
  Increase in heart rate: 13.71
Unanaesthetized animals; 1.25 μg i.v.
  increase in the nociceptive threshold (analgetic effect): 30%
Unanaesthetized animals; 2.5 μg i.v.
  increase in the nociceptive threshold (analgetic effect): 37%
Unanaesthetized animals; 5 μg i.v.
  increase in the nociceptive threshold (analgetic effect): 50%
Unanaesthetized animals; 10 μg i.v.
  increase in the nociceptive threshold (analgetic effect): 60%
[3]; [4]
  decrease of capsaicin-induced SOM release: 48%
  decrease of capsaicin-induced SP release: 44%
[3]; [5]
  inhibition of capsaicin-induced CGRP release: 27%
  inhibition of capsaicin-induced SOM release: 74%
  inhibition of capsaicin-induced SP release: 79%
[3]; [6]
  inhibition of CGRP release: 48%
  inhibition of SOM release: 42%
  inhibition of SP release: 36%
[3]; electrical stimulation, 500 nm TT-232, without TT-232 0.51 fmol/mg
  amount of SOM released: 0.39 fmol/mg
[3]; electrical stimulation, 500 nm TT-232, without TT-232 0.69 fmol/mg
  amount of CGRP released: 0.36 fmol/mg
[3]; electrical stimulation, 500 nm TT-232, without TT-232 6 fmol/mg
  amount of SP released: 3.8 fmol/mg
[3]; no stimulation
  basal, non-stimulated release of the neuropeptides (in words): not affected
